Results taken from ChEMBL document CHEMBL2203136, “Synthesis, characterization, biological evaluation and QSAR studies of 11-p-substituted phenyl-12-phenyl-11a,12-dihydro-11H-indeno[2,1-c][1,5]benzothiazepines as potential antimicrobial agents” (Eur J Med Chem, 2012).
Values after ≈ are worked out from the molar mass of the structure shown. Active and inactive are the calls of the source. The calls are words filed in the database; no cut-off is given here.

Experiments:
Pseudomonas aeruginosa [1] = test: Antibacterial activity against Pseudomonas aeruginosa MTCC 7952 after 24 hrs by serial dilution method; assay type: functional; settings: for MIC: Pseudomonas aeruginosa, MTCC 7952, 24 h
[2] = Octanol-water partition coefficient, log P of the compound; assay type: physicochemical
Escherichia coli [3] = test: Antibacterial activity against Escherichia coli MTCC 42 after 24 hrs by serial dilution method relative to 11,12-Diphenyl-11a,12-dihydro-11H-indeno[2,1-c][1,5]benzothiazepine; assay type: functional
Aspergillus fumigatus [4] = test: Antifungal activity against Aspergillus fumigatus MTCC 2550 after 72 hrs by serial dilution method relative to 11,12-Diphenyl-11a,12-dihydro-11H-indeno[2,1-c][1,5]benzothiazepine; assay type: functional
Staphylococcus aureus [5] = test: Antibacterial activity against Staphylococcus aureus MTCC 7443 after 24 hrs by serial dilution method; assay type: functional; settings: for MIC: Staphylococcus aureus, MTCC 7443, 24 h
Pseudomonas aeruginosa [6] = test: Antibacterial activity against Pseudomonas aeruginosa MTCC 7952 after 24 hrs by serial dilution method relative to 11,12-Diphenyl-11a,12-dihydro-11H-indeno[2,1-c][1,5]benzothiazepine; assay type: functional
Escherichia coli [7] = test: Antibacterial activity against Escherichia coli MTCC 42 after 24 hrs by serial dilution method; assay type: functional; settings: for MIC: Escherichia coli, MTCC 42, 24 h
Aspergillus fumigatus [8] = test: Antifungal activity against Aspergillus fumigatus MTCC 2550 after 72 hrs by serial dilution method; assay type: functional; settings: for MIC: Aspergillus fumigatus, MTCC 2550, 72 h
Candida albicans [9] = test: Antifungal activity against Candida albicans MTCC 183 after 72 hrs by serial dilution method; assay type: functional; settings: for MIC: Candida albicans, MTCC 183, 72 h
Bacillus subtilis = test: Antibacterial activity against Bacillus subtilis MTCC 441 after 24 hrs by serial dilution method
Staphylococcus aureus [10] = test: Antibacterial activity against Staphylococcus aureus MTCC 7443 after 24 hrs by serial dilution method relative to 11,12-Diphenyl-11a,12-dihydro-11H-indeno[2,1-c][1,5]benzothiazepine; assay type: functional
Candida albicans [11] = test: Antifungal activity against Candida albicans MTCC 183 after 72 hrs by serial dilution method relative to 11,12-Diphenyl-11a,12-dihydro-11H-indeno[2,1-c][1,5]benzothiazepine; assay type: functional

Row | MIC (Pseudomonas aeruginosa [1]) [µM] | logP [2] | MIC (Staphylococcus aureus [5]) [µM] | MIC (Escherichia coli [7]) [µM] | MIC (Aspergillus fumigatus [8]) [µM] | MIC (Candida albicans [9]) [µM] | Compound | -logMIC (Pseudomonas aeruginosa [1]) | Activity (Escherichia coli [3]) [%] | Activity (Aspergillus fumigatus [4]) [%] | -logMIC (Staphylococcus aureus [5]) | Activity (Pseudomonas aeruginosa [6]) [%] | -logMIC (Escherichia coli [7]) | -logMIC (Aspergillus fumigatus [8]) | -logMIC (Candida albicans [9]) | Activity (Bacillus subtilis) | Activity (Staphylococcus aureus [10]) [%] | Activity (Candida albicans [11]) [%]
1 | 57 (≈ 25 µg/mL) | 7.48 | 28.5 (≈ 12.5 µg/mL) | 14.2 (≈ 6.22 µg/mL) | 28.5 (≈ 12.5 µg/mL) | 28.5 (≈ 12.5 µg/mL) | Clc1ccc2c(c1)SC(c1ccccc1)C1C(=N2)c2ccccc2C1c1ccccc1 (centres undefined) | 1.24 | 88.53 | 76.99 | 1.55 | 7.91 | 1.85 | 1.55 | 1.55 | inactive | 53.95 | 53.95
2 | 106 (≈ 50 µg/mL) | 8 | 52.9 (≈ 25 µg/mL) | 13.2 (≈ 6.24 µg/mL) | 6.6 (≈ 3.12 µg/mL) | 13.2 (≈ 6.24 µg/mL) | Clc1ccc(C2Sc3cc(Cl)ccc3N=C3c4ccccc4C(c4ccccc4)C32)cc1 (centres undefined) | 0.98 | 89.34 | 94.67 | 1.28 | -70.92 | 1.88 | 2.18 | 1.88 | inactive | 14.53 | 78.67
